# Reference: paper PMC5679651, “Complex antigen presentation pathway for an HLA-A*0201-restricted epitope from Chikungunya 6K protein” (PLoS Neglected Tropical Diseases, 2017)
# Where two headings read alike, the source gives them in different places. Square brackets hold non-standard residues; d marks the D form. Ends that are not written are not given here. Peptide text beside a SMILES is read from it. * marks the point of attachment. Sta = CC(C)C[C@H](N)[C@@H](O)CC(=O)O; Isovaleryl = CC(C)CC(=O)*
# Legend:
# HLA-A*0201 [1] = biological target: HLA-A*0201 (Homo sapiens, UniProt P04439, /I218V/L300P/L318F/N151K/N90K/P208A/P217A/Q86G/Q94H/R138H/R169H/T345S); experiment: biochemical; format: binding; conditions: HLA-A*0201-transfected TAP-deficient RMA-S cells, peptide 2 h 26°C then 2 h 37°C, concentration range 0.001-100 μM, mAb PA2.1, flow cytometry, mean ± SD of four independent experiments, read-out: HLA-A*0201 Affinity values, EC50
# [2] = system: CHIKV 6K51-59 epitope presentation by rVACV-CHIKV-infected HLA-A*0201+ DC; experiment: cells; format: cell-based, HLA-A*0201-transgenic mice
# [3] = system: VACV D12I251-259 epitope presentation by infected HLA-A*0201+ DC; format: cell-based, HLA-A*0201-transgenic mice; conditions: for percentage of inhibition of recognition by VACV D12I251-259-specific CD8+ T cells: SD
# HLA-A*0201 [4] = biological target: HLA-A*0201 (Homo sapiens, UniProt P04439, D140Y/D185E/D98H/E176V/E277Q/G131W/G231S/I119V/I121R/I166T/I218V/L300P/L318F/N151K/N90K/P208A/P217A/Q86G/Q94H/R138H/R169H/T345S); experiment: biochemical; format: binding; conditions: HLA-A*0201-transfected TAP-deficient RMA-S cells; for binding to HLA-A*0201 (HLA-peptide surface complexes), in words: MHC-peptide complex stability assay
# [5] = system: CHIKV 6K peptide-specific CD8+ T cell lines; format: cell-based, HLA-A*0201-transgenic mice; conditions: ICS
# [6] = Mus musculus, T-cell, 5 h, read-out: percentage of inhibition of recognition by CHIKV 6K51-59-specific CD8+ T cells, SD
compound,measurement,setting,value
CC(C)C[C@H](NC(=O)[C@H](CC(C)C)NC(=O)[C@H](CCCNC(=N)N)NC(=O)[C@H](CC(C)C)NC(=O)[C@H](CS)NC(=O)[C@H](CC(N)=O)NC(=O)[C@H](CS)NC(=O)[C@H](CC(C)C)NC(=O)[C@@H](N)C(C)C)C(=O)O [6K 31–39] (H-VLCNCLRLL-OH),EC50,HLA-A*0201 [1]; SD,5 ± 3 µM
"CCN(CC)CCCC(C)Nc1ccnc2cc(Cl)ccc12 (stereo not drawn) [CQ, Chloroquine]",inhibition at 50 µM,[2]; [6],69 ± 19%
"CC(C)C[C@H](N)CS [Leu-SH, Leucinthiol]",percentage of inhibition of recognition by CHIKV 6K51-59-specific CD8+ T cells,[2]; SD,91 ± 13%
same,"effect on VACV D12I251-259 epitope presentation, in words",[3],lesser effect
"COc1ccc(C[C@H](N)C(=O)N[C@H]2[C@@H](O)[C@H](n3cnc4c(N(C)C)ncnc43)O[C@@H]2CO)cc1 [PURO, Puromycin]",inhibition at 0.5 µg/mL,[2]; [6],47 ± 21%
same,percentage of inhibition of recognition by VACV D12I251-259-specific CD8+ T cells,[3],4 ± 6%
ILDRIITNA [A10L 688-696],EC50,HLA-A*0201 [1]; SD,3 ± 3 µM
"CC(C)CC(=O)N[C@H](C(=O)N[C@H](C(=O)N[C@@H](CC(C)C)[C@@H](O)CC(=O)N[C@@H](C)C(=O)N[C@@H](CC(C)C)[C@@H](O)CC(=O)O)C(C)C)C(C)C [PEPST, Pepstatin] (Isovaleryl-VV[Sta]A[Sta]-OH)","effect on recognition by CHIKV 6K51-59-specific CD8+ T cell line, in words",[2],None of these inhibitors affected
CC(C)C[C@H](NC(=O)[C@@H](NC(=O)[C@H](CCCCN)NC(=O)[C@H](CS)NC(=O)[C@H](CS)NC(=O)[C@H](CS)NC(=O)[C@@H]1CCCN1C(=O)[C@H](CC(C)C)NC(=O)[C@H](CC(C)C)NC(=O)[C@@H](N)CCCNC(=N)N)[C@@H](C)O)C(=O)O [6K 37–46] (H-RLLPCCCKTL-OH),EC50,HLA-A*0201 [1]; SD,8 ± 6 µM
"C[C@H]1CCC/C=C/[C@@H]2C[C@H](O)C[C@H]2[C@H](O)/C=C/C(=O)O1 [BFA, Brefeldin]","effect on recognition by CHIKV 6K51-59-specific CD8+ T cell line, in words",[2],completely inhibited
same,"effect on VACV D12I251-259 epitope presentation, in words",[3],complete inhibition
"O=C(O)CN(CCN(CC(=O)O)CC(=O)O)CC(=O)O [EDTA, Ethylenediaminetetraacetic acid]","effect on recognition by CHIKV 6K51-59-specific CD8+ T cell line, in words",[2],unaffected
CC(C)C[C@H](NC(=O)[C@H]1O[C@@H]1C(=O)O)C(=O)NCCCCN=C(N)N [E64],"effect on recognition by CHIKV 6K51-59-specific CD8+ T cell line, in words",[2],None of these inhibitors affected
VMSVGAHTV [6K 51–59],EC50,HLA-A*0201 [1]; SD,9 ± 1 µM
"CC(=O)N[C@@H](CC(C)C)C(=O)N[C@@H](CC(C)C)C(=O)N[C@H](C=O)CCCNC(=N)N [LEU, Leupeptin]","effect on recognition by CHIKV 6K51-59-specific CD8+ T cell line, in words",[2],None of these inhibitors affected
"CC(C)C[C@H](NC(=O)[C@@H](O)[C@H](N)Cc1ccccc1)C(=O)O [BEST, Bestatin]","effect on recognition by CHIKV 6K51-59-specific CD8+ T cell line, in words",[2],unaffected
"CC(=O)N[C@@H](CSC(=O)[C@]1([C@@H](O)C(C)C)NC(=O)[C@H](C)[C@@H]1O)C(=O)O [LC, Lactacystin]",inhibition at 10 µM,[2]; [6],83 ± 3%
same,"effect on VACV D12I251-259 epitope presentation, in words",[3],lesser effect
ALIVLCNCL [6K 28–36],"binding to HLA-A*0201 (HLA-peptide surface complexes), in words",HLA-A*0201 [4],not detected
same,"HLA-A*0201 Affinity values, EC50","HLA-A*0201 [4]; peptide 2 h 26°C then 2 h 37°C, concentration range 0.001-100 μM, mAb PA2.1, flow cytometry, mean ± SD of four independent experiments",No binding
ALIPLAALI [6K 22–30],EC50,HLA-A*0201 [1]; SD,33 ± 28 µM
"O=S(=O)(F)Cc1ccccc1 [PMSF, Phenylmethane sulfonylfluoride]","effect on recognition by CHIKV 6K51-59-specific CD8+ T cell line, in words",[2],None of these inhibitors affected
TLAFLAVMSV [6K 45–54],EC50,HLA-A*0201 [1]; SD,1 ± 0.5 µM
ALIPLAALIV [6K 22–31],EC50,HLA-A*0201 [1]; SD,21 ± 20 µM
QALIPLAAL [6K 21–29],EC50,HLA-A*0201 [1],> 200 µM
same,"binding to HLA-A*0201 (HLA-peptide surface complexes), in words",HLA-A*0201 [4],residual
same,"specific recognition of peptide-pulsed DC by CTL line, in words",[5],no specific recognition
"c1cnc2c(c1)ccc1cccnc12 [PHE, 1–10 Phenanthroline]","effect on recognition by CHIKV 6K51-59-specific CD8+ T cell line, in words",[2],None of these inhibitors affected
Decanoyl-Arg-Val-Lys-Arg-chloromethylketone [dec-RVKR],percentage of inhibition of recognition by CHIKV 6K51-59-specific CD8+ T cells,[2]; SD,43 ± 20%
same,percentage of inhibition of recognition by VACV D12I251-259-specific CD8+ T cells,[3],4 ± 6%
